Activity calls are given as the source filed them.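 How the source made its calls: active means compounds giving half or more protection of infected cells from virus-caused growth loss, again on retest; inactive means the rest.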 Where a SMILES comes first, the peptide text is derived from it. The star is where a group is joined. OBn = c1ccc(CO*)cc1
Test system: CEM cells HIV-1 protection, formazan growth assay
Assay: NCI AIDS Antiviral Assay
Settings: for IC50: measured here: growth of uninfected CEM cells
Experimental: The ability of compounds to protect human CEM cells from HIV-1 infection is measured as a screen for new compounds capable of inhibiting the HIV virus. Five concentrations of drug were tested on uninfected and infected cells and cell growth was measured using a soluble formazan assay. […] Compounds that provided at least 50% protection were retested. Compounds that provided at least 50% protection on retest were listed as moderately active. Compounds that reproducibly provided 100% protection were listed as confirmed active. […] Note that the inability to provide protection could be due to toxicity.

Compound	EC50 [µM]	IC50 [µM]	outcome
[Cl][Ni+2][Cl].[NH-]CCN1CC1	> 200	40.7	–
NC(CCC(=O)OCc1ccccc1)C(=O)NC(CCC(=O)OCc1ccccc1)C(=O)O (stereo not drawn) (H-Glu(OBn)-Glu(OBn)-OH; configuration not given here)	> 1000	> 1000	–
O=C1N[C@H]2c3c(Cl)sc(Cl)c3[C@@H](O)[C@H]2O1	> 200	> 200	–
O=C1c2ccccc2C(=O)N1/N=C\c1ccc(O)cc1	> 135	> 135	–
O=C1CCCC(=O)N2c3ccc(cc3)CSCCSCc3ccc(cc3)N12	–	–	inactive
CSC1SCC2C(=O)N(C)C3(CC3C)C(=O)OCC(NC(=O)c3nc4ccccc4cc3O)C(=O)NC(C)C(=O)N(C)C1C(=O)N(C)C1(CC1C)C(=O)OCC(NC(=O)c1nc3ccccc3cc1O)C(=O)NC(C)C(=O)N2C (stereo not drawn)	> 8.32	0.00263	–
Cc1cn(COCCCO[Si](C)(C)C(C)(C)C)c(=O)[nH]c1=O	112	174	–
O=C(OC1C=C=CS(=O)(=O)CC#C/C=C\1)c1cnc2ccccc2n1 (stereo not drawn)	> 200	102	–
O=C(Nc1ccccc1-c1nn(C(=S)Nc2ccccc2)c(=S)n(C(=S)Nc2ccccc2)c1=O)C(F)(F)F	–	–	inactive
CC(C)(C)[Si](C)(C)OCC1OC(n2ccc(=O)[nH]c2=O)CC1(O)C/C=N/O (stereo not drawn)	> 200	12.6	–
COc1cc(C2(C)OC(=O)c3ccccc32)c(OC)c2ccccc12 (stereo not drawn)	> 44.7	7.76	–
S=c1[nH]nc(COc2ccc(Cl)cc2)o1	> 204	> 204	–
CCCS(=O)OC1C(C2COC(C)(C)O2)OC2OC(C)(C)OC21 (stereo not drawn)	> 200	95.5	–
Clc1cccc2nn3ccnc3n12	> 955	490	–
O=C1C2=C(SCCS2)C(=O)c2c(Sc3ccc(Cl)cc3)c(Sc3ccc(Cl)cc3)c(Sc3ccc(Cl)cc3)c(Sc3ccc(Cl)cc3)c21	> 151	> 151	–
CC(C)[Si](OC1=CCC[C@H]2NC(=O)[C@@H](Cc3ccccc3)[C@@]12C)(C(C)C)C(C)C	> 200	12	–
N=C1C=CC2C(=Nc3ccccc3[N+]2=O)N1Cc1ccncc1 (stereo not drawn)	> 22.4	21.4	–

Compound	EC50 [µM]	IC50 [µM]	outcome
CCOC(=O)C(Oc1ccc(OC)c2c1C(=O)CCC2)c1ccccc1 (stereo not drawn)	–	–	inactive
N=C(c1ccc(-c2cn3cc(C(=N)N4CCCC4)ccc3n2)cc1)N1CCCC1	148	> 200	–
NNc1[nH]c(=S)[nH]c1C(N)=O	> 200	> 200	–
CC1=C(C(=O)Nc2ccccc2)C(c2ccc(N(C)C)cc2)C(C(=O)Nc2ccccc2)=C(C)N1	–	–	inactive
O=C(Nc1nccs1)Nc1cc(C(F)(F)F)ccc1Cl	> 200	> 200	–
CC(C)[Si]1(C(C)C)OCC2OC(n3ccc(=O)[nH]c3=O)C([Se]c3ccccc3)C2O[Si](C(C)C)(C(C)C)O1 (stereo not drawn)	> 200	10.7	–
O=C(O)C1Cc2[nH]c3ccccc3c2C2CCCC12 (stereo not drawn)	> 708	363	–
CCOC(=O)Nc1nc2ccn(C)c2s1	> 200	> 200	–
N#CC(C(=N/NC(N)=S)/C(=N\NC(N)=S)C(C#N)c1ccccc1)c1ccccc1 (stereo not drawn)	> 97.7	47.9	–
c1ccc2c(c1)CCc1c-2n(CCN2CCOCC2)c2ccccc12	> 200	> 200	–
Cc1cccc(N2C(=O)/C(=C/c3ccc(N(CCC#N)CCC#N)cc3C)N=C2c2cc([N+](=O)[O-])ccc2Cl)c1	–	–	inactive
O=C(NCCCN1CC2CCCC2C1)C(C1CCCCC1)C1CCCCC1 (stereo not drawn)	> 200	11.5	–
Cn1ncc(=O)[nH]c1=S	> 200	> 200	–
COc1ccc(NC(=O)/C(=C\N2C(=O)CC(=O)NC2=S)C(C)=O)cc1	> 200	25.7	–
CCOC1CCN(C(=O)c2ccccc2)O1 (stereo not drawn)	> 200	> 200	–
CCCC1(c2ccccc2)Oc2ccccc2-n2cccc2C1=O (stereo not drawn)	> 200	40.7	–
O=C1SC(c2ccc(Cl)cc2)(c2ccc(Cl)cc2)c2ccccc21	> 200	93.3	–

— PubChem BioAssay AID179 (DTP/NCI, 2004)
